Values of other authors as cited in publication PMC4654502, “Early Gelatinase Activity Is Not a Determinant of Long-Term Recovery after Traumatic Brain Injury in the Immature Mouse” (PLoS ONE, 2015).

Experiments:
TBI in adult mice = conditions: 25 mg/kg; cited from earlier work
[1] = system: fluid-percussion injury in adult rats; conditions: cited from earlier work
[2] = system: adult models of ischemic stroke; set-up: method as in PMID 22587708; conditions: cited from earlier work
HI injury in rats at p21 = system: HI injury in rats at p21; set-up: method as in PMID 23171520; conditions: i.p. 50 mg/kg at 30 min, 6 h and 12 h after HI; cited from earlier work
HI in p7 rat pups = conditions: cited from earlier work

Row | SMILES | functional and neuropathological outcomes after TBI in adult mice (TBI in adult mice) | behavioral and cognitive deficits after TBI [1] | hippocampal neurons after TBI [1] | behavioral and cognitive consequences of ischemic stroke [2] | infarct volumes [2] | neuroprotection after HI injury (HI injury in rats at p21) | pro-MMP-9 after acute treatment (HI injury in rats at p21) | acute cell death after HI (HI in p7 rat pups) | ipsilateral brain tissue loss after HI (HI in p7 rat pups)
1 | O=S(=O)(CC1CS1)c1ccc(Oc2ccccc2)cc1 (stereo not drawn) [SB-3CT] | effective at improving functional and neuropathological outcomes | rescued behavioral and cognitive deficits | preserved hippocampal neurons | ameliorate behavioral and cognitive consequences | reduce infarct volumes | failed to render significant neuroprotection | a reduction in pro-MMP-9 | – | –
2 | CNC(=O)[C@H](Cc1c[nH]c2ccccc12)NC(=O)[C@@H](CC(=O)NO)CC(C)C [GM6001] | – | – | – | – | – | – | – | amelioration of acute cell death | preservation of ipsilateral brain tissue loss
